Values of other authors in patent publication US6699847B2, “Antiparasitic formulation” (Pfizer Inc., priority 1998, dated 2004).

SMILES: CO[C@H]1C[C@H](O[C@H]2[C@H](C)O[C@@H](O[C@@H]3/C(C)=C/C[C@@H]4C[C@@H](C[C@]5(C=C[C@H](C)[C@@H](C6CCCCC6)O5)O4)OC(=O)[C@@H]4C=C(C)[C@@H](O)[C@H]5OC/C(=C\C=C\[C@@H]3C)[C@]54O)C[C@@H]2OC)O[C@@H](C)[C@@H]1O [Doramectin]
- solubility in water: sparingly soluble
